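Values below derive from 48-hour exposures of cells grown in 96-well plates, with endpoints linearly interpolated between the two concentrations bracketing the appropriate inhibition level. Abbreviation: GI50, concentration required for 50% inhibition of growth. TGI: total growth inhibition.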
Assays:
Test in all cases: NCI-60 cell line screen, 48 h
SK-MEL-2 melanoma = tested on: SK-MEL-2 melanoma
EKVX NSCLC = tested on: EKVX NSCLC
U251 CNS = tested on: U251 CNS
SN12C renal = tested on: SN12C renal
RPMI-8226 leukemia = tested on: RPMI-8226 leukemia
T-47D breast = tested on: T-47D breast
CAKI-1 renal = tested on: CAKI-1 renal
OVCAR-8 ovarian = tested on: OVCAR-8 ovarian
M14 melanoma = tested on: M14 melanoma
MOLT-4 leukemia = tested on: MOLT-4 leukemia

| Compound | TGI (SK-MEL-2 melanoma) [µM] | TGI (EKVX NSCLC) [µM] | TGI (U251 CNS) [µM] | TGI (SN12C renal) [µM] | TGI (RPMI-8226 leukemia) [µM] | TGI (T-47D breast) [µM] | TGI (CAKI-1 renal) [µM] | TGI (OVCAR-8 ovarian) [µM] | TGI (M14 melanoma) [µM] | TGI (MOLT-4 leukemia) [µM] | GI50 (SK-MEL-2 melanoma) [µM] | GI50 (EKVX NSCLC) [µM] | GI50 (U251 CNS) [µM] | GI50 (SN12C renal) [µM] | GI50 (RPMI-8226 leukemia) [µM] | GI50 (T-47D breast) [µM] | GI50 (CAKI-1 renal) [µM] | GI50 (OVCAR-8 ovarian) [µM] | GI50 (M14 melanoma) [µM] | GI50 (MOLT-4 leukemia) [µM] |
| --- | --- | --- | --- | --- | --- | --- | --- | --- | --- | --- | --- | --- | --- | --- | --- | --- | --- | --- | --- | --- |
| COc1ccc(C=Nc2ccc(-c3nc4ccccc4[nH]3)cc2)cc1OC | > 100 | > 100 | > 100 | > 100 | > 100 | > 100 | > 100 | > 100 | > 100 | > 100 |  |  |  |  |  |  |  |  |  |  |
| COc1ccc(C(=O)c2ccc(-n3cc(/C=C/[N+](=O)[O-])c4ccccc43)cc2)cc1 | 58 | 55 | 24.9 | 42.7 | > 100 | 6.41 | > 52.3 | 45.2 | > 74.5 | > 100 |  |  |  |  |  |  |  |  |  |  |
| Cn1c(=O)sc2cc(C(=S)N3CCOCC3)ccc21 | > 100 | > 100 | > 100 | > 100 | > 100 | > 100 | > 100 | > 100 | > 100 | > 100 |  |  |  |  |  |  |  |  |  |  |
| CCCCCCCCCCCCCCCCOCC(Cl)COP(=O)(O)OP(=O)(O)OCC1OC(n2cnc3c(N)ncnc32)C(O)C1O (stereo not given) | > 100 | > 100 | > 100 | > 100 | > 100 | > 100 | > 100 | > 100 | > 100 | > 100 |  |  |  |  |  |  |  |  |  |  |
| CCCCCCOP(=O)(OCCCCCC)OC(C(=O)OC)C(F)(F)F (stereo not given) | > 100 | > 100 | > 100 | > 100 | > 100 | > 100 | > 100 | > 100 | > 100 | > 100 |  |  |  |  |  |  |  |  |  |  |
| Oc1[nH]c2ccccc2c1/C=c1/cc2c(c(-c3ccc(C(F)(F)F)cc3)n1)=Nc1ccccc1-2 | 28.7 | > 100 | 18.3 | > 100 | 13.7 | 13.9 | 27.5 | 28.1 | 17.4 | 13.2 | 8.66 | 10.5 | 4.46 | 27.9 | 2.93 | 3.05 | 3.96 | 4.99 | 3.89 | 3.32 |
| COc1cc2cc(C(=O)N3CC(CCl)c4c3cc([N+](C)(C)Cc3ccc([N+](=O)[O-])n3C)c3ccccc43)[nH]c2c(OC)c1OC (stereo not given) | 1.5 | 16.4 | > 100 | > 62.4 | 8.31 | 38.9 | > 19.9 | 8.78 | > 48 | 16 |  |  |  |  |  |  |  |  |  |  |
| NC(=S)N/N=C\CC(O)(C(F)(F)F)C(F)(F)F | > 10 | > 10 | > 10 | > 10 | > 10 | > 10 | > 10 | > 10 | > 10 | > 10 |  |  |  |  |  |  |  |  |  |  |
| CC(C)(C)OC(=O)N1CCc2c(n(C/C=C/c3ccccc3)[nH]c2=O)C1 | > 100 | > 100 | > 100 | > 100 | > 100 | > 100 | > 100 | > 100 | > 100 | > 100 |  |  |  |  |  |  |  |  |  |  |
| O=C1CSC2(CC(/C=C/c3ccccc3Br)=NN2c2cccc(S(=O)(=O)O)c2)N1c1nc2ccccc2s1 (stereo not given) | > 100 | > 100 | > 100 | > 100 | > 100 | > 100 | > 100 | > 100 | > 100 | > 100 |  |  |  |  |  |  |  |  |  |  |
| CCCNC(=O)CCC(C)[C@H]1CCC2C3C(C[C@H](OC(C)=O)[C@@]21C)[C@@]1(C)CCC2(C[C@H]1C[C@H]3OC(C)=O)OOC1(CCCCC1)OO2 (stereo not given in full) | 7.05 | 3.95 | 3.84 | 16 | 4.68 | 6.44 | 1.54 | 4.3 | > 100 | 5.14 |  |  |  |  |  |  |  |  |  |  |
| NC(=O)C1=CC2C3C=CC2(O)C(=O)OC3O1 (stereo not given) | > 40.2 | 13.5 | 40.5 | 20 | > 29.5 | 15.1 | 17 | 6.66 | 13.2 | 8.78 |  |  |  |  |  |  |  |  |  |  |
| O=C(CSc1nc2ccc(I)cc2c(=O)n1Cc1ccccc1)NN1C(=O)CCC1=O | > 100 | > 100 | > 100 | > 100 | > 100 | > 100 | 6.91 | > 100 | > 100 | > 100 |  |  |  |  |  |  |  |  |  |  |
| COc1cc(-n2cc(-c3cc(O)c(C/C=C(\C)CCC=C(C)C)c(O)c3)nn2)cc2c1O[C@]1(C)CC[C@@H](O)C(C)(C)[C@H]1C2 | 11.5 | 44.1 | 10.9 | > 41.4 | 0.475 | 47.2 | > 100 | > 66.4 | 31 | 1.36 | 0.672 | 2.28 | 0.0959 | 3.86 | 0.0324 | 1.34 | 0.43 | 3.17 | 0.787 | 0.0671 |
| COC(=O)c1c(OC)cc2cc3c(c(O)c2c1C)C(=O)C1(O)C(=O)C=C(OC)C(OC(=O)CC(C)N)=C1C3=O (stereo not given) | > 100 | 72.4 | > 100 | > 100 | 39.7 | > 100 | > 100 | 92.9 | > 100 | 76.3 |  |  |  |  |  |  |  |  |  |  |

— PubChem BioAssay (NCI)
